{
  "source": "patent US10485874B2",
  "about": "“Hyaluronic acid modified by sphingosine-1-phosphoric acid” (priority 2014, dated 2019)",
  "key": {"[1]": {"test_system": "cleaved caspase 3", "test": "Rat liver ischemia/reperfusion model: Western blot of cleaved caspase 3 in liver tissue", "type": "in vivo, Sprague-Dawley rats", "conditions": "liver tissue 120 minutes after reperfusion", "experimental": "(§1) Male Sprague-Dawley (hereinbelow, SD) rats, 200 to 250 g, were obtained from CLEA Japan, Inc. (Tokyo, Japan). Four groups of SD rats were studied.\n(§2) A study was conducted for a methanol-administration group, where methanol was the solvent for S1P (the content of administration:methanol (50 μl)+3% BSA (150 μl), 200 μl in total), a HA-administration group (the content of administration: 8 kDa HA dissolved in methanol:ultrapure water=1:3 at 0.32564 g/l, 200 μl in total), an S1P-administration group (the content of administration: 100 μg/kg in terms of the dose of S1P, S1P (50 μl)+3% BSA (150 μl), 200 μl in total), a HA-S1P-administration group (the content of administration: 100 μg/kg in terms of the dose of S1P, the HA-S1P formulation prepared at Hokkaido University was dissolved in methanol:ultrapure water=1:3 at 0.358 g/l, 200 μl in total).\n(§3) Each agent was injected into the tail vein of rats. Ten minutes after the injection, the hepatic artery, portal vein, and bile duct were occluded at once with microclips for 20 minutes. Upon completion of 20 minutes of total liver ischemia, the occlusion was released. For pathological examination, liver tissues were removed from 10 to 15 rats in each group 120 minutes after reperfusion. Also, blood was collected immediately before the injection of the agents and 30 minutes, 60 minutes, and 120 minutes after reperfusion. […]"}, "[2]": {"test_system": "sinusoid structure", "test": "Rat liver ischemia/reperfusion model: HE staining, pathological evaluation of liver", "type": "in vivo, Sprague-Dawley rats", "conditions": "liver tissue 120 minutes after reperfusion; 200× field", "experimental": "as §1, §2\nEach agent was injected into the tail vein of rats. Ten minutes after the injection, the hepatic artery, portal vein, and bile duct were occluded at once with microclips for 20 minutes. Upon completion of 20 minutes of total liver ischemia, the occlusion was released. […]\nThe liver tissues were fixed in 10% buffered formalin, and then embedded in paraffin, followed by staining with hematoxylin and eosin. The tissue sections of each group were evaluated. […]"}, "[3]": {"test_system": "serum ALT", "test": "Rat total liver ischemia/reperfusion model: serum ALT (liver function)", "type": "in vivo, Sprague-Dawley rats", "conditions": "100 μg/kg in terms of S1P via tail vein 10 min before 20 min total liver ischemia", "experimental": "as §1, §2\nEach agent was injected into the tail vein of rats. Ten minutes after the injection, the hepatic artery, portal vein, and bile duct were occluded at once with microclips for 20 minutes. Upon completion of 20 minutes of total liver ischemia, the occlusion was released. For pathological examination, liver tissues were removed from 10 to 15 rats in each group 120 minutes after reperfusion. Also, blood was collected immediately before the injection of the agents and 30 minutes, 60 minutes, and 120 minutes after reperfusion.\nIn order to evaluate the injury of liver parenchyma, the serum ALT value was measured with an autoanalyzer (FUJI DRI-CHEM 7000V, Fujifilm, Tokyo, Japan).\nStatistical analysis was conducted using the Kruskal Wallis H-test and the Mann-Whitney U test with Bonferroni correction as a post hoc test. Also, p< 0.05 was accepted to be indicative of statistical significance.\nUsing 200 to 250 g SD rats, four experimental groups (A) to (D) were prepared. […]"}, "[4]": {"test_system": "liver sinusoidal endothelial cells", "test": "Rat liver ischemia/reperfusion model: electron microscopic evaluation of the microstructure of liver", "type": "in vivo, Sprague-Dawley rats", "conditions": "liver excised 120 minutes after reperfusion", "experimental": "as §1, §2\nas §3, with “reperfusion.” for “reperfusion. Also, blood was collected immediately before the injection of the agents and 30 minutes, 60 minutes, and 120 minutes after reperfusion.”\nThe liver sinusoidal endothelial cells after ischemia/reperfusion were evaluated with an electron microscopy. […]"}, "[5]": {"test": "Accumulation of S1P in the liver by Western blot", "type": "in vivo, rat", "conditions": "Western blot with anti-S1P antibody; versus the S1P only sample", "experimental": "The expression of S1P in the liver tissues was confirmed by Western blot in accordance with the following method.\nThe rat liver tissues stored at −80° C. were homogenized in a buffer prepared from various reagents (150 mmol/L NaCl, 50 mM Tris-Cl, 1% NP-40, and a protease inhibitor). The resulting samples were centrifuged and the supernatants were collected for analysis. The samples thus obtained were separated using 10% SDS-PAGE gel and transferred to nitrocellulose membranes (Millipore, Bedford, Mass.). As the primary antibody, Anti-S1P antibody (ab140592) (1:1000, rabbit polyclonal, Abcam, Cambridge, UK) was used. As the secondary antibody, Anti-rabbit IgG, HRP-linked antibody (#7074S) (1:1000, Cell Signalling Technology, Beverley, Mass., USA) was used."}, "[6]": {"test_system": "TUNEL-positive cells", "test": "Rat liver ischemia/reperfusion model: TUNEL staining of liver (apoptosis-positive cells)", "type": "in vivo, Sprague-Dawley rats", "experimental": "as §1, §2\nEach agent was injected into the tail vein of rats. Ten minutes after the injection, the hepatic artery, portal vein, and bile duct were occluded at once with microclips for 20 minutes. […]\nUsing DeadEnd® Colorimetric TUNEL System (G7360) supplied by Promega KK, apoptosis-positive cells were immunohistochemically detected. The tissue sections of each group were evaluated. The number of TUNEL-positive cells and the total number of hepatocytes were counted in 10 randomly selected high-power fields (400×) focusing on the portal vein. […]"}, "[7]": {"test_system": "HO-1", "test": "Rat liver ischemia/reperfusion model: Western blot of HO-1 in liver tissue", "type": "in vivo, Sprague-Dawley rats", "conditions": "liver tissue 120 minutes after reperfusion", "experimental": "as §1, §2, §3"}},
  "data": [
    {"substance": "hyaluronic acid modified with sphingosine-1-phosphate [HA-S1P]", "values": [
      {"measurement": "expression of the apoptosis-related protein cleaved caspase 3", "setting": "[1]", "result": "inhibited"},
      {"measurement": "sinusoid structure (HE staining)", "setting": "[2]", "result": "sinusoid structure was maintained"},
      {"measurement": "serum ALT value", "setting": "[3]; 30 minutes after reperfusion, versus vehicle and S1P groups", "result": "significantly lower"},
      {"measurement": "serum ALT value", "setting": "[3]; 60 minutes after reperfusion, versus vehicle, HA and S1P groups", "result": "significantly lower"},
      {"measurement": "serum ALT value", "setting": "[3]; 120 minutes after reperfusion, versus HA group", "result": "significantly lower"},
      {"measurement": "microstructure of LSECs (electron microscopic images)", "setting": "[4]", "result": "undercoat structure of LSECs was maintained"},
      {"measurement": "expression of S1P in the liver tissues", "setting": "[5]", "result": "higher"},
      {"measurement": "percentage of TUNEL-positive cells (TUNEL-positive cells/total number of hepatocytes)", "setting": "[6]; 400× fields centering around Zone 1, 10 fields per sample, 120 minutes after reperfusion", "result": "significantly low"},
      {"measurement": "TUNEL staining, positive cells", "setting": "[6]; liver tissue 120 minutes after reperfusion", "result": "positive cells were almost unobserved"},
      {"measurement": "expression of HO-1", "setting": "[7]", "result": "increased"}
    ]}
  ]
}
